Assay results from US9695155B2, “Herbicidal substituted pyrimidinyloxy benzene compounds” (E. I. DU PONT DE NEMOURS AND COMPANY, priority 2013, dated 2017).

How the values were obtained:
blackgrass = experiment: Test C postemergence; type: in vivo, Alopecurus myosuroides; settings: for Plant response rating (0 to 100), Blackgrass: 16 g ai/ha, 0 is no effect, 100 is complete control
Method in brief: (§1)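 Preemergence: seeds sown in a loam soil–sand blend and sprayed with test chemical in a non-phytotoxic solvent mixture containing surfactant. Postemergence: plants at 2 to 18 cm (1- to 4-leaf stage) in peat-based medium, treated with the same formulation. Greenhouse 13 to 15 days, then visual rating 0 (no effect) to 100 (complete control).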

large (Lg) crabgrass = experiment: Test C postemergence; type: in vivo, Digitaria sanguinalis; settings: for Plant response rating (0 to 100), Crabgrass, Large: 16 g ai/ha, 0 is no effect, 100 is complete control
Method in brief: as §1

barnyardgrass [1] = experiment: Test A postemergence; type: in vivo, Echinochloa crus-galli
Method in brief: (§2)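 Injury scores run from 0, no effect, to 100, complete control, judged by eye against untreated plants roughly 10 days after treatment. Chemicals carried a surfactant in a non-phytotoxic solvent and went onto loam–sand soil preemergence or onto one- to two-leaf seedlings postemergence.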

rice = experiment: Test B flooded paddy test; type: in vivo, Oryza sativa; settings: Flood, 250 g ai/ha; 0 to 100 scale where 0 is no effect and 100 is complete control
Method in brief: (§3)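 Plants were grown to the 2-leaf stage, then pots were flooded to 3 cm above the soil and compounds were applied directly into the paddy water. That depth was held throughout, and after 13 to 15 days in the greenhouse injury was rated visually against controls on a 0–100 scale (0 no effect, 100 complete control).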

barnyardgrass [2] = experiment: Test B flooded paddy test; type: in vivo, Echinochloa crus-galli; settings: Flood, 250 g ai/ha; 0 to 100 scale where 0 is no effect and 100 is complete control
Method in brief: as §3

barnyardgrass [3] = experiment: Test C preemergence; type: in vivo, Echinochloa crus-galli; settings: for Barnyardgrass plant response rating: preemergence; for Plant response rating, Barnyardgrass: Preemergence, 31 g ai/ha, scale 0 to 100, 0 no effect, 100 complete control
Method in brief: as §1

morningglory = experiment: Test C preemergence; type: in vivo, Ipomoea coccinea; settings: preemergence
Method in brief: as §1

pigweed [4] = experiment: Test A postemergence; type: in vivo, Amaranthus retroflexus
Method in brief: as §2

wheat, winter = experiment: Test C preemergence; type: in vivo, Triticum aestivum; settings: preemergence
Method in brief: as §1

waterhemp = experiment: Test C preemergence; type: in vivo, Amaranthus rudis; settings: preemergence
Method in brief: as §1

pigweed [5] = experiment: Test A preemergence; type: in vivo, Amaranthus retroflexus
Method in brief: as §2

soybean = experiment: Test C preemergence; type: in vivo, Glycine max; settings: preemergence
Method in brief: as §1

ragweed = experiment: Test C postemergence; type: in vivo, Ambrosia elatior; settings: for Plant response rating (0 to 100), Ragweed: 16 g ai/ha, 0 is no effect, 100 is complete control
Method in brief: as §1

[6] = 125 g ai/ha, postemergence, visual rating, scale 0 to 100 (0 no effect, 100 complete control)
[7] = Postemergence, 62 g ai/ha, scale 0 to 100 (0 no effect, 100 complete control)
[8] = 125 g ai/ha, 0 to 100 scale where 0 is no effect and 100 is complete control
[9] = 500 g ai/ha, 0 to 100 scale where 0 is no effect and 100 is complete control
[10] = 16 g ai/ha, scale 0 to 100 (0 no effect, 100 complete control)
[11] = 62 g ai/ha, scale 0 (no effect) to 100 (complete control)
[12] = 125 g ai/ha, scale 0 (no effect) to 100 (complete control)
[13] = 31 g ai/ha, postemergence, visual rating, scale 0 to 100 (0 no effect, 100 complete control), 13 to 15 days
[14] = 1000 g ai/ha, 0 to 100 scale, 0 no effect, 100 complete control

| SMILES | Plant response rating (0 to 100), Blackgrass (blackgrass; postemergence) | Plant response rating, Blackgrass (blackgrass; [6]) | Plant response rating, Blackgrass (blackgrass; [7]) | Plant response rating (0 to 100), Crabgrass, Large (large (Lg) crabgrass; postemergence) | Plant response rating, Crabgrass, Large (large (Lg) crabgrass; [6]) | Plant response rating, Crabgrass, Large (large (Lg) crabgrass; [7]) | Plant response rating, Rice (rice) | Plant response rating, Barnyardgrass (barnyardgrass [2]) | Barnyardgrass plant response rating (barnyardgrass [3]; [10]) | Barnyardgrass plant response rating (barnyardgrass [3]; [11]) | Barnyardgrass plant response rating (barnyardgrass [3]; [12]) | Plant response rating, Barnyardgrass (barnyardgrass [3]) | Morningglory plant response rating (morningglory; [10]) | Morningglory plant response rating (morningglory; [11]) | Morningglory plant response rating (morningglory; [12]) | Wheat plant response rating (wheat, winter; [10]) | Wheat plant response rating (wheat, winter; [11]) | Wheat plant response rating (wheat, winter; [12]) | Waterhemp plant response rating (waterhemp; [10]) | Waterhemp plant response rating (waterhemp; [11]) | also measured |
| --- | --- | --- | --- | --- | --- | --- | --- | --- | --- | --- | --- | --- | --- | --- | --- | --- | --- | --- | --- | --- | --- |
| Cc1cnc(Oc2cccc(C#N)c2-n2cc(I)cn2)nc1 [Compound 136] | 0 | 5 | 5 | 5 | 15 | 5 | 15 | 20 | 0 | 60 | 100 | 10 | 20 | 10 | 60 | 0 | 0 | 0 | 0 | 75 | Plant response rating, Blackgrass (blackgrass; Postemergence, 31 g ai/ha, scale 0 to 100 (0 no effect, 100 complete control), 13 to 15 days): 5; Barnyardgrass plant response rating (barnyardgrass [1]; [8]): 30; Plant response rating, Barnyardgrass (barnyardgrass [1]; [9]): 90; Pigweed plant response rating (pigweed [4]; [8]): 80; Plant response rating, Pigweed (pigweed [4]; [9]): 100; Waterhemp plant response rating (waterhemp; [12]): 100; Plant response rating, Pigweed (pigweed [5]; [8]): 90; Pigweed plant response rating (pigweed [5]; [9]): 100; Soybean plant response rating (soybean; [10]): 20; Soybean plant response rating (soybean; [11]): 50; Soybean plant response rating (soybean; [12]): 85; Plant response rating (0 to 100), Ragweed (ragweed; postemergence): 25; Plant response rating, Ragweed (ragweed; [6]): 45; Plant response rating, Ragweed (ragweed; [7]): 45 |
| FCc1cn(-c2c(F)cccc2Oc2ncc(Cl)cn2)nn1 [Compound 154] | 0 | 0 | 0 | 5 | 10 | 10 | 10 | 20 | 5 | 70 | 100 | 25 | 10 | 50 | 85 | 0 | 0 | 5 | 100 | 100 | Blackgrass plant response rating (blackgrass; [13]): 0; Crabgrass, Large plant response rating (large (Lg) crabgrass; [13]): 10; Plant response rating, Barnyardgrass (barnyardgrass [1]; [14]): 100; Plant response rating, Pigweed (pigweed [4]; [14]): 100; Waterhemp plant response rating (waterhemp; [12]): 100; Pigweed plant response rating (pigweed [5]; 1000 g ai/ha, 0 to 100 scale, 0 no effect, 100 complete control, approx. 10 days): 100; Soybean plant response rating (soybean; [10]): 50; Soybean plant response rating (soybean; [11]): 80; Soybean plant response rating (soybean; [12]): 95; Plant response rating (0 to 100), Ragweed (ragweed; postemergence): 35; Ragweed plant response rating (ragweed; [13]): 45; Plant response rating, Ragweed (ragweed; [6]): 90; Plant response rating, Ragweed (ragweed; [7]): 100 |
